Experimental data taken from patent US20050048579A1, “Tertiary structures of ICAM-1/LFA-1 modulators” (priority 2003, published 2005).
Values belong to the compound of their own block, whether it stands above or below them. Bridge positions count the residues as written; N and C are the ends. Peptide text beside a SMILES is read from it.

How the values were obtained:
[1] = molecular target: ICAM-1/LFA-1 dependent cell aggregation (Homo sapiens, UniProt P05362); settings: literature reports; cited from earlier work
[2] = Solubility of the peptide; assay type: physicochemical; settings: NS, not soluble; precluded testing; listed as R4 to A mutation
Description: (§1) Cysteine-constrained peptides, synthesized by Biopeptide (San Diego, Calif., USA), were isolated using high-performance liquid chromatography, and their correct mass was confirmed by mass spectrometry. The peptides were dissolved in 5% dimethylsulfoxide in phosphate-buffered saline (PBS) at concentrations of 10 mm and stored at −80° C. until use. The mAb directed against LFA-1 (TS1/18) was purified from a hybridoma line ([…], Manassas, Va.) as described previously (Oj, V. T. & Herzenberg, T. (1980) Immunoglobulin-producing hybrid celllines. In Selected Methods in Cellular Immunology (Mishell, B. B. & Shiigi, S. M.,eds), H. H. Freeman, New York; Larson, R. S., Brown, D. C. & Sklar, L. A.(1997) Retinoic acid induces aggregation of the acute promyelocytic leukemia cell lineNB-4 by utilization of LFA-1 and ICAM-2.Blood 90, 2747-2756; Rothlein, R. & Springer, T. A. (1986) The requirement for lymphocyte function associated antigen 1 in homotypic leukocyte adhesion stimulated by phorbol ester. J. Exp.Med. 163, 1132-1149).

[3] = molecular target: T1, LFA-1 binding to ICAM-1 (JY cells) (Homo sapiens, UniProt P05362); test: LFA-1:ICAM-1 dependent JY cell aggregation assay (2 hours); assay type: cell-based
T1 construct: endogenous in cells; host or cells: JY cells
Description: as §1
(§2) JY cells were maintained in RPMI-1640 medium supplemented with 10% fetal bovine serum at 37° C. in an atmosphere containing 5% CO2 in air. The aggregation of JY cells, which is dependent on LFA-1 binding to ICAM-1, was determined as previously reported (Shannon, J. P., Silva, M. V., Brown, D. C. & Larson, R. S. (2001) Novel cyclic peptide inhibits intercellular adhesion molecule-1-mediated cell aggregation. J. Pept. Res. 58, 140-150; Larson, R. S., Brown, D. C. & Sklar, L. A.(1997) Retinoic acid induces aggregation of the acute promyelocytic leukemia cell lineNB-4 by utilization of LFA-1 and ICAM-2.Blood 90, 2747-2756; Rothlein, R. & Springer, T. A. (1986) The requirement for lymphocyte function associated antigen 1 in homotypic leukocyte adhesion stimulated by phorbol ester. J. Exp.Med. 163, 1132-1149). Briefly, JY cells were washed twice with serum-free media and resuspended at a concentration of 4×10^5 cells/mL. Cells were then preincubated with various concentrations of peptides or mAb for 15 minutes at room temperature. A 50 μL aliquot of cells was seeded in each well of a 96-well flat-bottomed microtiterplate followed by the addition of either peptide or mAb to a final volume of 100 μL. Cells were allowed to aggregate at 37° C. in humidified air containing 5% CO2. Within each well, the number of aggregates and the total number of free (single) cells were counted by inverted phase microscopy. Percent aggregation, P, was then determined as follows: P=100(1−Ff/Fi), where Ff (Fi) is the final (initial) number of free cells. Percent aggregation was then used to calculate percent inhibition, I, as follows: […], where Pi (Pc) is the percent aggregation with modulatory peptide (control). The constants for 50% inhibition (IC50) were derived from a linear fit to the percent inhibition at four concentrations (50 μm, 100 μm, 500 μm, and 1 mm) of inhibitory peptide. Each experiment was performed at least three times, with each condition performed in duplicate. The data are reported as the mean values and the SDs of each IC50.

[4] = molecular target: T1, LFA-1 binding to ICAM-1 (JY cells); test: LFA-1:ICAM-1 dependent cell aggregation assay, slightly modified (360 minute incubations); assay type: cell-based
Description: as §2
The same general procedure was used as described in Example 1.
The functional activity of each IP02 derivative was measured in a slightly-modified version of the previously described cell aggregation assay (Shannon, J. P., Silva, M. V., Brown, D. C., & Larson, R. S. (2001). Novel cyclic peptide inhibits intercellular adhesion molecule-1-mediated cell aggregation. J. Pept. Res. 58, 140-150; Merchant, S. H., Gurule, D. M., Larson, R. S. (2003). Amelioration of ischemia-reperfusion injury with cyclic peptide blockade of ICAM-1. Am. J. Physiol. Heart Circ. 284,H1260-1268; Larson, R. S., Brown, D. C., and Sklar, L. A. (1997). Retinoic acid induces aggregation of the acute promyelocytic leukemia cell line NB-4 by utilization of LFA-1 and ICAM-2. Blood 90, 2747-2756; Rothlein, R. and Springer, T. A. (1986). The requirement for lymphocyte function-associated antigen 1 in homotypic leukocyte adhesion stimulated by phorbol ester. J. Exp. Med. 163, 1132-1149). Longer incubations (360 minutes) were used here instead of the earlier 120 minute incubations in order to increase the observed differences among peptide antagonists. Of all the amino acid substitutions, replacement of R6 with K, to produce IP02-K6, improved the IC50 the most. […] Alternatively, replacement of L2 or L3 with V (IP02-V2 and IP02-V3) or A8 with L (IP02-L8) abrogated activity, with IC50s exceeding 1,000 μM.

[5] = tested on: ischemia-reperfusion injury; settings: in vivo; cited from earlier work

T1 sequence (P05362 28-532): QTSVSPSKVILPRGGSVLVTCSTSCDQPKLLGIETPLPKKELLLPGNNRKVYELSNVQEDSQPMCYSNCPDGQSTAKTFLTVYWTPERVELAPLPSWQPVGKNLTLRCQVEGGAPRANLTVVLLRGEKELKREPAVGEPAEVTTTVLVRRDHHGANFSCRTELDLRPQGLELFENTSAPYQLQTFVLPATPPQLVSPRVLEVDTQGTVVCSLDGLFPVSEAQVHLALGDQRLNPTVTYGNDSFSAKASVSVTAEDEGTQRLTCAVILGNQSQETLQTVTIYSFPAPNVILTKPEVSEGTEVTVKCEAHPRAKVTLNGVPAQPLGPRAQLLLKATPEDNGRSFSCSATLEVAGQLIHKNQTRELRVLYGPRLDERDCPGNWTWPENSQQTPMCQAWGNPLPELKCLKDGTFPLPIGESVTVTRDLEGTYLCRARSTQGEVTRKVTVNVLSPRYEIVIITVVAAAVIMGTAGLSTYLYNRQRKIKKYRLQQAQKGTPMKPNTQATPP
Sequence of ICAM-1/LFA-1 dependent cell aggregation (P05362 28-532): as above

Compound: CC[C@H](C)[C@@H]1NC(=O)[C@H](CO)NC(=O)[C@H](CCCNC(=N)N)NC(=O)[C@H](CCSC)NC(=O)[C@H](CCCNC(=N)N)NC(=O)[C@H](CC(C)C)NC(=O)[C@H](CC(C)C)NC(=O)[C@@H](N)CSSC[C@@H](C(=O)O)NC1=O [IP01, CLLRMRSIC] (H-CLLRMRSIC-OH; disulfide 1-9; N-terminus and C-terminus assumed)
inhibition of ICAM-1/LFA-1 dependent cell aggregation (in words) [1]: potent in vitro inhibitor

solubility of the peptide [2]: insoluble
Compound: CC[C@H](C)[C@@H]1NC(=O)[C@H](CO)NC(=O)[C@H](CCCNC(=N)N)NC(=O)[C@H](CCSC)NC(=O)[C@H](C)NC(=O)[C@H](CC(C)C)NC(=O)[C@H](CC(C)C)NC(=O)[C@@H](N)CSSC[C@@H](C(=O)O)NC1=O [IP01-A4, CLLAMRSIC] (H-CLLAMRSIC-OH; disulfide 1-9; N-terminus and C-terminus assumed)

IC50 [3]: > 1000 µM
Compound: CC[C@H](C)[C@@H]1NC(=O)[C@H](CO)NC(=O)[C@H](C)NC(=O)[C@H](CCSC)NC(=O)[C@H](CCCNC(=N)N)NC(=O)[C@H](CC(C)C)NC(=O)[C@H](CC(C)C)NC(=O)[C@@H](N)CSSC[C@@H](C(=O)O)NC1=O [IP01-A6, CLLRMASIC] (H-CLLRMASIC-OH; disulfide 1-9; N-terminus and C-terminus assumed)

bioactivity after alanine substitution (in words) ([3]; listed as S7 to alanine substitution): retained significant bioactivity
Compound: CC[C@H](C)[C@@H]1NC(=O)[C@H](C)NC(=O)[C@H](CCCNC(=N)N)NC(=O)[C@H](CCSC)NC(=O)[C@H](CCCNC(=N)N)NC(=O)[C@H](CC(C)C)NC(=O)[C@H](CC(C)C)NC(=O)[C@@H](N)CSSC[C@@H](C(=O)O)NC1=O [IP01-A7, CLLRMRAIC] (H-CLLRMRAIC-OH; disulfide 1-9; N-terminus and C-terminus assumed)

bioactivity after alanine substitution (in words) ([3]; listed as I8 to alanine substitution): retained significant bioactivity
Compound: CSCC[C@@H]1NC(=O)[C@H](CCCNC(=N)N)NC(=O)[C@H](CC(C)C)NC(=O)[C@H](CC(C)C)NC(=O)[C@@H](N)CSSC[C@@H](C(=O)O)NC(=O)[C@H](C)NC(=O)[C@H](CO)NC(=O)[C@H](CCCNC(=N)N)NC1=O [IP01-A8, CLLRMRSAC] (H-CLLRMRSAC-OH; disulfide 1-9; N-terminus and C-terminus assumed)
inhibition of ICAM-1/LFA-1 dependent cell aggregation (in words) [1]: enhanced inhibition

IC50 fold smaller than lead peptide IP01 [4]: ~6 fold
Compound: CSCC[C@@H]1NC(=O)[C@H](CCCNC(=N)N)NC(=O)[C@H](CC(C)C)NC(=O)[C@H](CC(C)C)NC(=O)[C@@H](N)CSSC[C@@H](C(=O)O)NC(=O)[C@H](C)NC(=O)[C@H](CO)NC(=O)[C@H](CCCCN)NC1=O [IP02-K6, CLLRMKSAC] (H-CLLRMKSAC-OH; disulfide 1-9; N-terminus and C-terminus assumed)
inhibition of ischemia-reperfusion injury (in words) [5]: potent in vivo inhibitor
inhibition of ICAM-1/LFA-1 dependent cell aggregation (in words) [1]: more potent inhibitor of ICAM-1 than IP01
